Patent US20200371122A1, “BIOMARKER FOR SENESCENT CELLS” (Buck Institute for Research on Aging, priority 2017, published 2020)

What was measured:
Assay type in all cases: cell-based, human
IMR-90 fibroblasts [1] = experiment: Induction of senescence in non-senescent cells by prostaglandins or 5-LOX pathway products (EdU, SA-B-gal, p21, immunoblot); conditions: 10 μM, 10 days
Description: RNA was extracted from cells or tissues using commercially available kits (Isolate II—Bioline for cells; Direct-zol—Zymo for tissues) according to the manufacturer's instructions. cDNA synthesis was performed using a High Capacity cDNA Reverse Transcription Kit (Thermo Fisher) according to the manufacturer's instructions. Quantitative PCR was performed on a LightCycler 480 II (Roche) using primers and probes designed for the Universal Probe Library. Primers and probes used for human transcripts were ACTB: 5′-CCAACCGCGAGAAGATGA (SEQ ID NO:1), 5′-TCCATCACGATGCCAGTG (SEQ ID NO:2), Probe #64; TUBA: 5′-cttcgtctccgccatcag (SEQ ID NO:3), 5′-ttgccaatctggacacca (SEQ ID NO:4), Probe #58; ALOX5: 5′-[…] (SEQ ID NO:5), 5′-[…] (SEQ ID NO:6), Probe #64; ALOX5AP: 5′-ggtctgcggggctacttt (SEQ ID NO:7), 5′-[…] (SEQ ID NO:8), Probe #18; ALOX12: 5′-[…] (SEQ ID NO:9), 5′-agccaggtcgtcaggag (SEQ ID NO:10), Probe #32; ALOX15: 5′-[…] (SEQ ID NO:11), 5′-[…] (SEQ ID NO:12), Probe #76; ALOX15B: 5′-[…] (SEQ ID NO:13), 5′-actgggaggcgaagaagg (SEQ ID NO:14), Probe #51; AKR1C1: 5′-catgcctgtcctgggattt (SEQ ID NO:15), 5′-[…] (SEQ ID NO:16), Probe #49; AKR1C2: 5′-ctatgcgcctgcagaggt (SEQ ID NO:17), 5′-[…] (SEQ ID NO:18), Probe #31; AKR1C3: 5′-[…] (SEQ ID NO:19), 5′-[…] (SEQ ID NO:20), Probe #78; CYSLTR2: 5′-[…] (SEQ ID NO:21), 5′-[…] (SEQ ID NO:22), Probe #18; DPEP1: 5′-gacgtcctgaggctggtg (SEQ ID NO:23), 5′-[…] (SEQ ID NO:24), Probe #9 (SEQ ID NO:25), ELOVL2: 5′-[…] (SEQ ID NO:26), 5′-[…] (SEQ ID NO:27), Probe #53; ELOVL4: 5′-catttggcccatggattc (SEQ ID NO:28), 5′-[…] (SEQ ID NO:29), Probe #31; ELOVL5: 5′-cccttccatgcgtccata (SEQ ID NO:30), 5′-[…] (SEQ ID NO:31), Probe #31; EPHX2: 5′-ttctgctggacaccctgaa (SEQ ID NO:32), 5′-[…] (SEQ ID NO:33), Probe #45; GPX4: 5′-ttcccgtgtaaccagttcg (SEQ ID NO:34), 5′-[…] (SEQ ID NO:35), Probe #36; LTA4H: 5′-ctgctctcacggtccagtc (SEQ ID NO:36), 5′-[…] (SEQ ID NO:37), Probe #64; LTBR2: 5′-[…] (SEQ ID NO:38), 5′-[…] (SEQ ID NO:39), Probe #33; LTC4S: 5′-[…] (SEQ ID NO:40), 5′-[…] (SEQ ID NO:41), Probe #18; PTGDS: 5′-[…] (SEQ ID NO:42), 5′-[…] (SEQ ID NO:43), Probe #36; PTGES: 5′-agagatgcctgcccacag (SEQ ID NO:44), 5′-tggccaccacgtacatctt (SEQ ID NO:45), Probe #4; PTGES2: 5′-[…] (SEQ ID NO:46), 5′-[…] (SEQ ID NO:47), Probe #49; PTGES3 (SEQ ID NO:48), 5′-[…] (SEQ ID NO:49), 5′-[…] (SEQ ID NO:50), Probe #48; PTGIS: 5′-[…] (SEQ ID NO:51), 5′-[…] (SEQ ID NO:52), Probe #45; PTGR1: 5′-atgatggggcagcaagtg (SEQ ID NO:53), 5′-cccatcagaaatggagtgc (SEQ ID NO:54), Probe #64; PTGS1: 5′-[…] (SEQ ID NO:55), 5′-gtggtggtccatgttcctg (SEQ ID NO:56), Probe #81; PTGS2: 5′-gatccccagggctcaaac (SEQ ID NO:57), 5′-[…] (SEQ ID NO:58), Probe #61; TBXAS1: 5′-[…] (SEQ ID NO:59), 5′-tgcctcccgtgtgaatct (SEQ ID NO:60), Probe #73; AREG: 5′-[…] (SEQ ID NO:61), 5′-[…] (SEQ ID NO:62), Probe #73; CCL2: 5′-AGTCTCTGCCGCCCTTCT (SEQ ID NO:63), 5′-GTGACTGGGGCATTGATTG (SEQ ID NO:64), Probe #40; CCL27: 5′-[…] (SEQ ID NO:65), 5′-gctgggtggcagtaggaat (SEQ ID NO:66), Probe #18; CXCL1: 5′-[…] (SEQ ID NO:67), 5′-[…] (SEQ ID NO:68), Probe #52; HGF: 5′-[…] (SEQ ID NO:69), 5′-[…] (SEQ ID NO:70), Probe #49; ILIA: 5′-[…] (SEQ ID NO:71), 5′-[…] (SEQ ID NO:72), Probe #6; IL1B: 5′-[…] (SEQ ID NO:73), 5′-[…] (SEQ ID NO:74), Probe #78; IL6: 5′-[…] (SEQ ID NO:75), 5′-gaaggcagcaggcaacac (SEQ ID NO:76), Probe #45; IL8: 5′-[…] (SEQ ID NO:77), 5′-atggttccttccggtggt (SEQ ID NO:78), Probe #72; IL10: 5′-[…] (SEQ ID NO:79), 5′-[…] (SEQ ID NO:80), Probe #67; MMP3: 5′-[…] (SEQ ID NO:81), 5′-[…] (SEQ ID NO:82), Probe #36; PDGFA: 5′-[…] (SEQ ID NO:83), 5′-[…] (SEQ ID NO:84), Probe #80; VEGF: 5′-[…] (SEQ ID NO:85), 5′-[…] (SEQ ID NO:86), Probe #50; P21WAF1(CDKN1A): 5′-[…]

PPARγ = PPARγ luciferase reporter in irradiated IMR-90 fibroblasts; conditions: senescent cells, 10 days
Excerpt: Lentiviral NF-κB reporter constructs (SA Biosciences) and baculoviral PPAR gamma constructs (Signosis) were transduced into proliferating cells. Following treatment, luciferase was extracted using Passive Lysis Buffer (Promega) and analyzed using a commercially available kit (Promega) using a Perkin-Elmer Victor™ X3 luminometer.

IMR-90 fibroblasts [2] = experiment: Oncogenic ras-induced senescence of IMR-90 fibroblasts; conditions: RasV12 lentivirus, 7 days treatment
Excerpt: Senescence was induced by irradiation with 10 Gy of ionizing radiation. Non-senescent controls (proliferating or quiescent) were placed in the irradiator for an identical period of time without turning on the irradiator. Oncogene-induced senescence was induced via lentiviral overexpression of HRAS^V12, as described previously (Wiley et al. (2016) Cell Metab. 23: 303-314).

In the case of `CCCCC/C=C/C=C1/C(=O)C=C[C@@H]1C/C=C\CCCC(=O)O` [15d-PGJ2], the p21 gene expression (IMR-90 fibroblasts [1]) is reported as “induced”, the senescence-associated beta-galactosidase (IMR-90 fibroblasts [1]) is reported as “induced” and the p21 protein accumulation (IMR-90 fibroblasts [1]; immunoblot) is reported as “induced”.

Work on `CS(=O)(=O)Nc1ccc([N+](=O)[O-])cc1OC1CCCCC1` [NS-398] yielded a PPARγ activation reduced (PPARγ) of roughly 50%.

`CC(c1cc2ccccc2s1)N(O)C(N)=O` (centres unmarked) [zileuton] was tested, and the “ras-induced senescence (IL-6 secretion, EdU incorporation, colony formation)” value (IMR-90 fibroblasts [2]) was “blunting”.
